Active and inactive are the calls of the source. No cut-off for these calls is given here.
Legend:
Nucleic Acid [1] = test: Binding affinity to poly A-poly U RNA assessed as biphasic transitions of change in melting temperature at compound to DNA molar ratio of 0.2 at pH 5 by thermal denaturation assay; format: nucleic-acid assay
Calf thymus DNA [2] = test: Binding affinity to calf thymus DNA assessed as melting temperature at compound to DNA molar ratio of 0.3 at pH 5 by thermal denaturation assay; format: nucleic-acid assay; conditions: Bos taurus
Calf thymus DNA [3] = test: Binding affinity to calf thymus DNA assessed as change in melting temperature at compound to DNA molar ratio of 0.2 at pH 5 by thermal denaturation assay; format: nucleic-acid assay; conditions: Bos taurus
Nucleic Acid [4] = test: Binding affinity to poly A-poly U RNA in citric acid buffer at pH 5 by fluorescence titration assay; format: nucleic-acid assay
Nucleic Acid [5] = test: Binding affinity to […] in citric acid buffer at pH 5 by UV-v titration assay; format: nucleic-acid assay
Nucleic Acid [6] = test: Binding affinity to poly A-poly U RNA assessed as biphasic transitions of melting temperature at compound to DNA molar ratio of 0.3 at pH 5 by thermal denaturation assay; format: nucleic-acid assay
Calf thymus DNA [7] = test: Binding affinity to calf thymus DNA in citric acid buffer at pH 5 by UV-v titration assay; format: nucleic-acid assay; conditions: Bos taurus
Nucleic Acid [8] = test: Binding affinity to poly G-poly C RNA in sodium cacodylate buffer at pH 7 by fluorescence titration assay; format: nucleic-acid assay
Calf thymus DNA [9] = test: Binding affinity to calf thymus DNA assessed as change in melting temperature at compound to DNA molar ratio of 0.3 at pH 5 by thermal denaturation assay; format: nucleic-acid assay; conditions: Bos taurus
Nucleic Acid [10] = test: Binding affinity to poly A-poly U RNA assessed as biphasic transitions of change in melting temperature at compound to DNA molar ratio of 0.3 at pH 5 by thermal denaturation assay; format: nucleic-acid assay
Nucleic Acid [11] = test: Binding affinity to poly A-poly U RNA assessed as melting temperature at compound to DNA molar ratio of 0.3 at pH 5 by thermal denaturation assay; format: nucleic-acid assay
Nucleic Acid [12] = test: Binding affinity to poly A-poly U RNA at compound to DNA molar ratio of 0.1 to 0.4 at pH 5 by circular dichroism; format: nucleic-acid assay
Nucleic Acid [13] = test: Binding affinity to poly dA-poly dT RNA in sodium cacodylate buffer at pH 7 by UV-v titration assay; format: nucleic-acid assay
Nucleic Acid [14] = test: Binding affinity to UMP in sodium cacodylate buffer at pH 7 by fluorescence titration assay relative to control; format: nucleic-acid assay
Calf thymus DNA [15] = test: Binding affinity to calf thymus DNA in sodium cacodylate buffer at pH 7 by fluorescence titration assay relative to control; format: nucleic-acid assay; conditions: Bos taurus
Nucleic Acid [16] = test: Binding affinity to AMP in sodium cacodylate buffer at pH 7 by fluorescence titration assay relative to control; format: nucleic-acid assay
HEp-2 [17] = test: Cytotoxicity against human Hep2 cells at 0.1 to 100 uM after 72 hrs by MTT assay; format: functional, cell-based
Nucleic Acid [18] = test: Binding affinity to […] assessed as change in melting temperature at compound to DNA molar ratio of 0.3 at pH 7 by thermal denaturation assay; format: nucleic-acid assay
Nucleic Acid [19] = test: Binding affinity to poly A-poly U RNA assessed as change in melting temperature at compound to DNA molar ratio of 0.3 at pH 5 by thermal denaturation assay; format: nucleic-acid assay
Nucleic Acid [20] = test: Binding affinity to poly A-poly U RNA assessed as melting temperature at compound to DNA molar ratio of 0.3 at pH 7 by thermal denaturation assay; format: nucleic-acid assay
Nucleic Acid [21] = test: Binding affinity to poly G-poly C RNA in sodium cacodylate buffer at pH 7 by fluorescence titration assay relative to control; format: nucleic-acid assay
Nucleic Acid [22] = test: Binding affinity to poly dA-poly dT RNA in citric acid buffer at pH 5 by fluorescence titration assay; format: nucleic-acid assay
Nucleic Acid [23] = test: Binding affinity to CMP in sodium cacodylate buffer at pH 7 by fluorescence titration assay relative to control; format: nucleic-acid assay
Nucleic Acid [24] = test: Binding affinity to poly G-poly C RNA in sodium cacodylate buffer at pH 7 by UV-v titration assay; format: nucleic-acid assay
HEp-2 [25] = test: Cytotoxicity against human Hep2 cells at 10 to 100 uM after 72 hrs by MTT assay; format: functional, cell-based
HT-29 = test: Cytotoxicity against human HT-29 cells at 10 to 100 uM after 72 hrs by MTT assay; format: functional, cell-based
MIA PaCa-2 [26] = test: Cytotoxicity against human MIAPaCa2 cells at 10 to 100 uM after 72 hrs by MTT assay; format: functional, cell-based
HeLa [27] = test: Cytotoxicity against human HeLa cells at 10 to 100 uM after 72 hrs by MTT assay; format: functional, cell-based
Nucleic Acid [28] = test: Binding affinity to poly A-poly U RNA in citric acid buffer at pH 5 by UV-v titration assay; format: nucleic-acid assay
MIA PaCa-2 [29] = test: Drug uptake in human MIAPaCa2 cells at 1 mM after 10 mins using DAPI staining by fluorescence microscopy analysis; format: ADME, cell-based; conditions: mia paca-2, 10 min, 1000 µM
Caco-2 = test: Cytotoxicity against human Caco-2 cells at 10 to 100 uM after 72 hrs by MTT assay; format: functional, cell-based
HeLa [30] = test: Drug uptake in human HeLa cells at 1 mM after 10 mins using DAPI staining by fluorescence microscopy analysis; format: ADME, cell-based; conditions: 1000 µM
Nucleic Acid [31] = test: Binding affinity to poly G-poly C RNA in citric acid buffer at pH 5 by UV-v titration assay; format: nucleic-acid assay
Nucleic Acid [32] = test: Binding affinity to poly A-poly U RNA in sodium cacodylate buffer at pH 7 by UV-v titration assay; format: nucleic-acid assay
Calf thymus DNA [33] = test: Binding affinity to calf thymus DNA at compound to DNA molar ratio of 0.1 to 0.5 at pH 7 by circular dichroism; format: nucleic-acid assay; conditions: Bos taurus

`Cc1c2cc(NC(=O)NCCNC(=O)Nc3ccc4c(c3)c(C)[n+](C)c3ccccc43)ccc2c2ccccc2[n+]1C.O=S(=O)([O-])O.O=S(=O)([O-])O` gave a ΔTm (Nucleic Acid [1]) of -0.1 °C, a Tm (Calf thymus DNA [2]) of 75.6 °C and a ΔTm (Calf thymus DNA [3]) of 12.1 °C. For the same molecule, the log Ks (Nucleic Acid [4]) was 6.6, the log Ks (Nucleic Acid [5]) was 5.2 and the Tm (Nucleic Acid [6]) was 31.1 °C. For the same molecule, the log Ks (Calf thymus DNA [7]) was 6, the log Ks (Nucleic Acid [8]) was 5.4 and the ΔTm (Calf thymus DNA [9]) was 15 °C. The ΔTm (Nucleic Acid [10]) was -0.4 °C, the Tm (Nucleic Acid [11]) was 83.8 °C and the Activity (Nucleic Acid [12]) was “Active”. The log Ks (Nucleic Acid [13]) was 5, the RFU (Nucleic Acid [14]) was 62.5 and the RFU (Calf thymus DNA [15]) was 3. The RFU (Nucleic Acid [16]) was -45.2, the Activity (HEp-2 [17]) was “Active” and the ΔTm (Nucleic Acid [18]) was 6.1 °C. The ΔTm (Nucleic Acid [19]) was 1.9 °C, the Tm (Nucleic Acid [20]) was 51.6 °C and the RFU (Nucleic Acid [21]) was 0.7. For the same molecule, the log Ks (Nucleic Acid [22]) was 6.1, the RFU (Nucleic Acid [23]) was 47.7 and the log Ks (Nucleic Acid [24]) was 5.2.
In the case of `Cc1c2cc(NC(=O)NCCCCCCNC(=O)Nc3ccc4c(c3)c(C)[n+](C)c3ccccc43)ccc2c2ccccc2[n+]1C.O=S(=O)([O-])O.O=S(=O)([O-])O`, the ΔTm (Nucleic Acid [1]) is reported as -1.2 °C, the Tm (Calf thymus DNA [2]) is reported as 76.3 °C and the Activity (HEp-2 [25]) is reported as “inactive”. For the same molecule, the ΔTm (Calf thymus DNA [3]) was 14 °C, the log Ks (Nucleic Acid [4]) was 5.6 and the Activity (HT-29) was “inactive”. The log Ks (Calf thymus DNA [7]) was 5.4, the Activity (MIA PaCa-2 [26]) was “inactive” and the Activity (HeLa [27]) was “inactive”. For the same molecule, the log Ks (Nucleic Acid [8]) was 6.2, the log Ks (Nucleic Acid [28]) was 4.5 and the ΔTm (Calf thymus DNA [9]) was 15.7 °C. The Drug uptake (MIA PaCa-2 [29]) was “Active”, the Activity (Nucleic Acid [12]) was “Active” and the Activity (Caco-2) was “inactive”. It also gave a log Ks (Nucleic Acid [13]) of 5.6, an RFU (Nucleic Acid [14]) of 3.5 and an RFU (Calf thymus DNA [15]) of 1.8. The RFU (Nucleic Acid [16]) was -47.8, the Activity (HEp-2 [17]) was “Active” and the ΔTm (Nucleic Acid [18]) was 6.4 °C. The Tm (Nucleic Acid [20]) was 51.5 °C, the Drug uptake (HeLa [30]) was “Active” and the RFU (Nucleic Acid [21]) was 0.3. The log Ks (Nucleic Acid [22]) was 6.1, the log Ks (Nucleic Acid [31]) was 5.1 and the RFU (Nucleic Acid [23]) was 3.5.
`Cc1c2cc(NC(=O)NCCCCCCCCCNC(=O)Nc3ccc4c(c3)c(C)[n+](C)c3ccccc43)ccc2c2ccccc2[n+]1C.O=S(=O)([O-])O.O=S(=O)([O-])O` gave a ΔTm (Nucleic Acid [1]) of -1.3 °C, a Tm (Calf thymus DNA [2]) of 74 °C and a ΔTm (Calf thymus DNA [3]) of 13.2 °C. For the same molecule, the log Ks (Nucleic Acid [4]) was 5.4, the log Ks (Nucleic Acid [32]) was 5.1 and the Tm (Nucleic Acid [6]) was 31.1 °C. For the same molecule, the Activity (Calf thymus DNA [33]) was “Active”, the log Ks (Nucleic Acid [8]) was 5.4 and the log Ks (Nucleic Acid [28]) was 5.4. It also gave a ΔTm (Calf thymus DNA [9]) of 13.4 °C, a ΔTm (Nucleic Acid [10]) of -1.6 °C and a Tm (Nucleic Acid [11]) of 82.6 °C. The log Ks (Nucleic Acid [13]) was 5.3, the RFU (Nucleic Acid [14]) was 1.02 and the RFU (Calf thymus DNA [15]) was 0.7. For the same molecule, the RFU (Nucleic Acid [16]) was -55, the Activity (HEp-2 [17]) was “inactive” and the ΔTm (Nucleic Acid [18]) was 5.5 °C. It also gave a ΔTm (Nucleic Acid [19]) of 1.9 °C, a Tm (Nucleic Acid [20]) of 53.6 °C and an RFU (Nucleic Acid [21]) of 0.5. The log Ks (Nucleic Acid [22]) was 6.6, the RFU (Nucleic Acid [23]) was -9.4 and the log Ks (Nucleic Acid [24]) was 5.8.
